Measured values taken from ChEMBL document CHEMBL3393050, “Fine tuning of 4,6-bisphenyl-2-(3-alkoxyanilino)pyrimidine focusing on the activity-sensitive aminoalkoxy moiety for a therapeutically useful inhibitor of receptor for advanced glycation end products (RAGE)” (Bioorg Med Chem, 2015).
The source made the active and inactive calls. No cut-off for these calls is given here.

Tested on: not listed separately
Test: Kinetic solubility in DMSO solution at pH 4 by nephelometry
Type: physicochemical
Details: read-out: Kinetic_solubility

| SMILES | solubility kinetic [µM] |
| --- | --- |
| CCN(CC)CCOc1cccc(Nc2nc(-c3ccc(Cl)cc3)cc(-c3ccc(Cl)cc3)n2)c1.Cl | 372 |
| CN(C)C1CCN(CCOc2cccc(Nc3nc(-c4ccc(Cl)cc4)cc(-c4ccc(Cl)cc4)n3)c2)C1.Cl (stereo unspecified) | > 500 |

Target: Advanced glycosylation end product-specific receptor (Homo sapiens) (UniProt Q15109)
Sequence (Q15109 whole entry): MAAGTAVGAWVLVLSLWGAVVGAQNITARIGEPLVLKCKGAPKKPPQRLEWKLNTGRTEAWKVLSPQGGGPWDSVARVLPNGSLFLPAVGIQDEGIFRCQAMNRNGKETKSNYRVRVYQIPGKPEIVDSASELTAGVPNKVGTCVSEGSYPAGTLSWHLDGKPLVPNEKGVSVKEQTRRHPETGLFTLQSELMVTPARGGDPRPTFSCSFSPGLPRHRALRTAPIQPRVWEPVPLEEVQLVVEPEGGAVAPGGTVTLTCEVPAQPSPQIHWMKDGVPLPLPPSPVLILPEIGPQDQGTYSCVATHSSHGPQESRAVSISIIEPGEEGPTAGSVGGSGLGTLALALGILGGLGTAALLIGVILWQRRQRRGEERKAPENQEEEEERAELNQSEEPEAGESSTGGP
Test: Inhibition of biotinylated human RAGE assessed as bound amyloid beta level at 20 uM after 60 mins by ELISA relative to control
Details: not given

| SMILES | inhibition |
| --- | --- |
| Clc1ccc(-c2cc(-c3ccc(Cl)cc3)nc(Nc3cccc(OCCN4CCOCC4)c3)n2)cc1 | inactive |
| Clc1ccc(-c2cc(-c3ccc(Cl)cc3)nc(Nc3cccc(OCCN4CCSCC4)c3)n2)cc1 | inactive |
| CONC(=O)CCOc1cccc(Nc2nc(-c3ccc(Cl)cc3)cc(-c3ccc(Cl)cc3)n2)c1 | inactive |
| CO/N=C/CCOc1cccc(Nc2nc(-c3ccc(Cl)cc3)cc(-c3ccc(Cl)cc3)n2)c1 | inactive |
| CCOCCOc1cccc(Nc2nc(-c3ccc(Cl)cc3)cc(-c3ccc(Cl)cc3)n2)c1 | inactive |
| CON(C)C(=O)CCOc1cccc(Nc2nc(-c3ccc(Cl)cc3)cc(-c3ccc(Cl)cc3)n2)c1 | inactive |
| O=C(O)CCOc1cccc(Nc2nc(-c3ccc(Cl)cc3)cc(-c3ccc(Cl)cc3)n2)c1 | inactive |
| O=C1CCN(CCOc2cccc(Nc3nc(-c4ccc(Cl)cc4)cc(-c4ccc(Cl)cc4)n3)c2)CC1 | inactive |
| COC(=O)CCOc1cccc(Nc2nc(-c3ccc(Cl)cc3)cc(-c3ccc(Cl)cc3)n2)c1 | inactive |
| O=C1CCCN1CCOc1cccc(Nc2nc(-c3ccc(Cl)cc3)cc(-c3ccc(Cl)cc3)n2)c1 | inactive |

Same assay, conditions: values are per cent of control

| SMILES | residual binding, % of control [%] |
| --- | --- |
| CCN(CCOC)CCOc1cccc(Nc2nc(-c3ccc(Cl)cc3)cc(-c3ccc(Cl)cc3)n2)c1 | 88 |
| CN1CCN(c2cccc(Nc3nc(-c4ccc(Cl)cc4)cc(-c4ccc(Cl)cc4)n3)c2)CC1 | 74 |
| Clc1ccc(-c2cc(-c3ccc(Cl)cc3)nc(Nc3cccc(OCCN4CCCCC4)c3)n2)cc1 | 112 |
| CCN(CCO)CCOc1cccc(Nc2nc(-c3ccc(Cl)cc3)cc(-c3ccc(Cl)cc3)n2)c1 | 101 |
| CN1CCN(CCOc2cccc(Nc3nc(-c4ccc(Cl)cc4)cc(-c4ccc(Cl)cc4)n3)c2)CC1 | 71 |
| CCN(CC)CCCOc1cccc(Nc2nc(-c3ccc(Cl)cc3)cc(-c3ccc(Cl)cc3)n2)c1 | 84 |
| CN(C)C1CCN(CCOc2cccc(Nc3nc(-c4ccc(Cl)cc4)cc(-c4ccc(Cl)cc4)n3)c2)C1.Cl (stereo unspecified) | 143 |
| CC(C)(C)OC(=O)NC1CCN(CCOc2cccc(Nc3nc(-c4ccc(Cl)cc4)cc(-c4ccc(Cl)cc4)n3)c2)C1 (stereo unspecified) | 46 |
| COC1CCCN(CCOc2cccc(Nc3nc(-c4ccc(Cl)cc4)cc(-c4ccc(Cl)cc4)n3)c2)C1 (stereo unspecified) | 48 |
| Clc1ccc(-c2cc(-c3ccc(Cl)cc3)nc(Nc3cccc(OCCN4CCCC4)c3)n2)cc1 | 114 |
| NC1CCN(CCOc2cccc(Nc3nc(-c4ccc(Cl)cc4)cc(-c4ccc(Cl)cc4)n3)c2)C1 (stereo unspecified) | 106 |
| OC1CCCN(CCOc2cccc(Nc3nc(-c4ccc(Cl)cc4)cc(-c4ccc(Cl)cc4)n3)c2)C1 (stereo unspecified) | 52 |
| CN(C)CCOc1cccc(Nc2nc(-c3ccc(Cl)cc3)cc(-c3ccc(Cl)cc3)n2)c1 | 24 |

Tested on: not listed separately
Test: Kinetic solubility in DMSO solution at pH 7.4 by nephelometry
Type: physicochemical
Details: read-out: Kinetic_solubility

| SMILES | solubility kinetic [µM] |
| --- | --- |
| CN(C)C1CCN(CCOc2cccc(Nc3nc(-c4ccc(Cl)cc4)cc(-c4ccc(Cl)cc4)n3)c2)C1.Cl (stereo unspecified) | 28.2 |
